Where “and” joins values, the source holds several entries; their conditions need not be identical. Equal values may be shown once. Toxic doses and inconclusive results are not listed.
Test system: CD2F1 mice, L1210 leukemia ip, survival T/C
Assay: NCI In Vivo Anticancer Drug Screen. Data for tumor model L1210 Leukemia (intraperitoneal) in CD2F1 (CDF1) mice
Conditions: higher = longer survival
How it was run: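 In this screen, transplantable tumors were grown in mice given either the compound or its vehicle. Results were expressed as the treated measurement relative to the control measurement.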

[1] = endpoint: mean survival time, dose: 75.0 mg/kg/injection, schedule: Q01DX001 (ip), vehicle: saline
[2] = endpoint: mean survival time, dose: 150.0 mg/kg/injection, schedule: Q01DX001 (ip), vehicle: saline
[3] = endpoint: mean survival time, dose: 300.0 mg/kg/injection, schedule: Q01DX001 (ip), vehicle: saline
[4] = endpoint: mean survival time, dose: 200.0 mg/kg/injection, schedule: Q01DX009 (ip), vehicle: saline with Tween-80
[5] = endpoint: mean survival time, dose: 400.0 mg/kg/injection, schedule: Q01DX009 (ip), vehicle: saline with Tween-80
[6] = endpoint: mean survival time, dose: 100.0 mg/kg/injection, schedule: Q04DX002 (ip), vehicle: saline with Tween-80
[7] = endpoint: mean survival time, dose: 200.0 mg/kg/injection, schedule: Q04DX002 (ip), vehicle: saline with Tween-80
[8] = endpoint: mean survival time, dose: 25.0 mg/kg/injection, schedule: Q01DX009 (ip), vehicle: saline with Tween-80
[9] = endpoint: mean survival time, dose: 100.0 mg/kg/injection, schedule: Q01DX009 (ip), vehicle: saline with Tween-80
[10] = endpoint: mean survival time, dose: 100.0 mg/kg/injection, schedule: Q04DX003 (ip), vehicle: saline with Tween-80
[11] = endpoint: mean survival time, dose: 200.0 mg/kg/injection, schedule: Q04DX003 (ip), vehicle: saline with Tween-80
[12] = endpoint: mean survival time, dose: 400.0 mg/kg/injection, schedule: Q04DX003 (ip), vehicle: saline with Tween-80
[13] = endpoint: mean survival time, dose: 100.0 mg/kg/injection, schedule: Q04DX003 (ip), vehicle: saline

## CCCCCCCCCCCCCCCCCCOCC(COP(=O)([O-])OCC[N+](C)(C)C)OC (stereo not given)
endpoint: median survival time, dose: 6.25 mg/kg/injection, schedule: Q01DX009 (ip), vehicle: suspension in saline
  T/C: 98 % of control
endpoint: median survival time, dose: 12.5 mg/kg/injection, schedule: Q01DX009 (ip), vehicle: suspension in saline
  T/C: 93 % of control
endpoint: median survival time, dose: 25.0 mg/kg/injection, schedule: Q01DX009 (ip), vehicle: suspension in saline
  T/C: 104 % of control
endpoint: median survival time, dose: 50.0 mg/kg/injection, schedule: Q01DX009 (ip), vehicle: suspension in saline
  T/C: 88 % of control

## Nc1nc(NC2OC(CO)C(O)C2O)c2nnsc2n1 (stereo not given)
[1]
  T/C: 96 % of control
[2]
  T/C: 100 % of control
[3]
  T/C: 88 % of control

## CCOC(=O)c1sc(=S)[nH]c1C
[4]
  T/C: 89 % of control
[5]
  T/C: 87 % of control

## CCNC(=S)N1c2c(nc(N)[nH]c2=O)NCC1CNc1ccc(C(=O)NC(CCC(=O)O)C(=O)O)cc1 (stereo not given)
endpoint: mean survival time, dose: 100.0 mg/kg/injection, schedule: Q01DX001 (ip), vehicle: alkali diluted with saline
  T/C: 98 % of control
endpoint: mean survival time, dose: 200.0 mg/kg/injection, schedule: Q01DX001 (ip), vehicle: alkali diluted with saline
  T/C: 101 % of control
endpoint: mean survival time, dose: 400.0 mg/kg/injection, schedule: Q01DX001 (ip), vehicle: alkali diluted with saline
  T/C: 103 % of control

## N[C@H](C(=O)O)[C@@H]1CC(Cl)=NO1
endpoint: mean survival time, dose: 0.5 mg/kg/injection, schedule: Q01DX009 (ip), vehicle: saline
  T/C: 113 % of control
endpoint: mean survival time, dose: 0.78 mg/kg/injection, schedule: Q01DX009 (ip), vehicle: saline
  T/C: 115 % of control
endpoint: mean survival time, dose: 1.0 mg/kg/injection, schedule: Q01DX009 (ip), vehicle: saline
  T/C: 122 % of control
endpoint: mean survival time, dose: 2.0 mg/kg/injection, schedule: Q01DX009 (ip), vehicle: saline
  T/C: 124 % of control
endpoint: mean survival time, dose: 3.0 mg/kg/injection, schedule: Q01DX009 (ip), vehicle: saline
  T/C: 167 % of control
endpoint: mean survival time, dose: 3.12 mg/kg/injection, schedule: Q01DX009 (ip), vehicle: saline
  T/C: 153 % of control
endpoint: mean survival time, dose: 6.0 mg/kg/injection, schedule: Q01DX009 (ip), vehicle: saline
  T/C: 165 % of control
endpoint: mean survival time, dose: 6.25 mg/kg/injection, schedule: Q01DX009 (ip), vehicle: saline
  T/C: 151 % of control and 156 % of control
endpoint: mean survival time, dose: 8.0 mg/kg/injection, schedule: Q01DX009 (ip), vehicle: saline
  T/C: 157 % of control
endpoint: mean survival time, dose: 12.0 mg/kg/injection, schedule: Q01DX009 (ip), vehicle: saline
  T/C: 104 % of control
endpoint: mean survival time, dose: 12.5 mg/kg/injection, schedule: Q01DX009 (ip), vehicle: saline
  T/C: 118 % of control and 122 % of control
endpoint: mean survival time, dose: 16.0 mg/kg/injection, schedule: Q01DX009 (ip), vehicle: saline
  T/C: 155 % of control
endpoint: mean survival time, dose: 25.0 mg/kg/injection, schedule: Q01DX009 (ip), vehicle: saline
  T/C: 92 % of control
endpoint: mean survival time, dose: 100.0 mg/kg/injection, schedule: Q04DX003 (ip), vehicle: water
  T/C: 153 % of control
endpoint: median survival time, dose: 0.5 mg/kg/injection, schedule: Q01DX009 (ip), vehicle: saline
  T/C: 122 % of control
endpoint: median survival time, dose: 1.0 mg/kg/injection, schedule: Q01DX009 (ip), vehicle: saline
  T/C: 163 % of control
endpoint: median survival time, dose: 2.0 mg/kg/injection, schedule: Q01DX009 (ip), vehicle: saline
  T/C: 180 % of control
endpoint: median survival time, dose: 3.0 mg/kg/injection, schedule: Q01DX009 (ip), vehicle: saline
  T/C: 152 % of control
endpoint: median survival time, dose: 4.0 mg/kg/injection, schedule: Q01DX009 (ip), vehicle: saline
  T/C: 150 % of control
endpoint: median survival time, dose: 6.0 mg/kg/injection, schedule: Q01DX009 (ip), vehicle: saline
  T/C: 114 % of control and 109 % of control
endpoint: median survival time, dose: 16.0 mg/kg/injection, schedule: Q01DX009 (ip), vehicle: saline
  T/C: 123 % of control
endpoint: median survival time, dose: 24.0 mg/kg/injection, schedule: Q01DX009 (ip), vehicle: saline
  T/C: 72 % of control

## Cc1cc(C(=O)O)c(CC(=O)O)o1
[6]
  T/C: 104 % of control
[7]
  T/C: 104 % of control
endpoint: mean survival time, dose: 400.0 mg/kg/injection, schedule: Q04DX002 (ip), vehicle: saline with Tween-80
  T/C: 86 % of control

## Cc1ccc(S(=O)(=O)C2C=CC=CC=C2)cc1
[8]
  T/C: 98 % of control
endpoint: mean survival time, dose: 50.0 mg/kg/injection, schedule: Q01DX009 (ip), vehicle: saline with Tween-80
  T/C: 98 % of control
[9]
  T/C: 94 % of control

## NOCc1ccccc1CON
[1]
  T/C: 96 % of control
[2]
  T/C: 100 % of control
[3]
  T/C: 100 % of control

## CC1(CCOCc2ccccc2)NC(=O)NC1=O (stereo not given)
[9]
  T/C: 95 % of control
[10]
  T/C: 97 % of control
[4]
  T/C: 95 % of control
[11]
  T/C: 98 % of control
[5]
  T/C: 98 % of control
[12]
  T/C: 98 % of control

## COC(=O)C(C(N)=O)C(=O)C1C(=O)N(c2ccccc2)N=C1C (stereo not given)
endpoint: mean survival time, dose: 50.0 mg/kg/injection, schedule: Q04DX002 (ip), vehicle: saline with Tween-80
  T/C: 97 % of control
[6]
  T/C: 93 % of control
[7]
  T/C: 93 % of control

## N#CC1=C(N)CCC1
endpoint: mean survival time, dose: 6.25 mg/kg/injection, schedule: Q01DX009 (ip), vehicle: saline with Tween-80
  T/C: 97 % of control
endpoint: mean survival time, dose: 12.5 mg/kg/injection, schedule: Q01DX009 (ip), vehicle: saline with Tween-80
  T/C: 95 % of control
[8]
  T/C: 93 % of control
[10]
  T/C: 102 % of control
[12]
  T/C: 97 % of control

## CCOC(=O)c1[nH]c(=S)n(Cc2ccccc2)c1C(=O)OCC
endpoint: mean survival time, dose: 50.0 mg/kg/injection, schedule: Q04DX003 (ip), vehicle: saline with Tween-80
  T/C: 103 % of control
[10]
  T/C: 108 % of control
[11]
  T/C: 97 % of control

## CC(C)(C)OC(=O)NC(CSSCC(NC(=O)OC(C)(C)C)C(=O)O)C(=O)O (stereo not given)
[10]
  T/C: 92 % of control
[11]
  T/C: 92 % of control
[12]
  T/C: 90 % of control

## CN(C)Cc1cc(CN(C)C)c(O)c(CN(C)C)c1
[13]
  T/C: 107 % of control
endpoint: mean survival time, dose: 200.0 mg/kg/injection, schedule: Q04DX003 (ip), vehicle: saline
  T/C: 100 % of control

## O=c1c2ccccc2c(-c2ccccc2)nn1Cc1ccccc1
[10]
  T/C: 103 % of control
[11]
  T/C: 108 % of control
[12]
  T/C: 98 % of control

## O=C(O)CCC1CC(=O)OC12CCCCC2 (stereo not given)
endpoint: mean survival time, dose: 100.0 mg/kg/injection, schedule: Q01DX001 (ip), vehicle: saline with Tween-80
  T/C: 96 % of control
endpoint: mean survival time, dose: 200.0 mg/kg/injection, schedule: Q01DX001 (ip), vehicle: saline with Tween-80
  T/C: 96 % of control
endpoint: mean survival time, dose: 400.0 mg/kg/injection, schedule: Q01DX001 (ip), vehicle: saline with Tween-80
  T/C: 91 % of control

## O=C1OCCO1
[9]
  T/C: 92 % of control
[4]
  T/C: 95 % of control
[5]
  T/C: 97 % of control

## O=[N+]([O-])c1ccc(N=Cc2ccc3c(c2)OCO3)c(Br)c1
endpoint: mean survival time, dose: 100.0 mg/kg/injection, schedule: Q01DX009 (ip), vehicle: Klucel (hydroxypropylcellulose) (HPC)
  T/C: 108 % of control
endpoint: mean survival time, dose: 100.0 mg/kg/injection, schedule: Q04DX003 (ip), vehicle: other
  T/C: 108 % of control
endpoint: mean survival time, dose: 200.0 mg/kg/injection, schedule: Q01DX009 (ip), vehicle: Klucel (hydroxypropylcellulose) (HPC)
  T/C: 109 % of control
endpoint: mean survival time, dose: 200.0 mg/kg/injection, schedule: Q04DX003 (ip), vehicle: other
  T/C: 103 % of control
endpoint: mean survival time, dose: 400.0 mg/kg/injection, schedule: Q01DX009 (ip), vehicle: Klucel (hydroxypropylcellulose) (HPC)
  T/C: 109 % of control
endpoint: mean survival time, dose: 400.0 mg/kg/injection, schedule: Q04DX003 (ip), vehicle: other
  T/C: 103 % of control

## O=C(CC(=O)C(F)(F)C(F)(F)C(F)(F)F)C(F)(F)F.O=C(CC(=O)C(F)(F)C(F)(F)C(F)(F)F)C(F)(F)F.[Cu]
endpoint: mean survival time, dose: 3.13 mg/kg/injection, schedule: Q04DX002 (ip), vehicle: saline with Tween-80
  T/C: 90 % of control
endpoint: mean survival time, dose: 6.25 mg/kg/injection, schedule: Q04DX002 (ip), vehicle: saline with Tween-80
  T/C: 87 % of control
endpoint: mean survival time, dose: 12.5 mg/kg/injection, schedule: Q04DX002 (ip), vehicle: saline with Tween-80
  T/C: 102 % of control
endpoint: mean survival time, dose: 25.0 mg/kg/injection, schedule: Q04DX002 (ip), vehicle: saline with Tween-80
  T/C: 98 % of control
endpoint: median survival time, dose: 25.0 mg/kg/injection, schedule: Q04DX002 (ip), vehicle: saline with Tween-80
  T/C: 111 % of control

## CCO[Si](C)(OCC)OCC
endpoint: mean survival time, dose: 50.0 mg/kg/injection, schedule: Q01DX009 (ip), vehicle: saline
  T/C: 101 % of control
endpoint: mean survival time, dose: 100.0 mg/kg/injection, schedule: Q01DX009 (ip), vehicle: saline
  T/C: 101 % of control
endpoint: mean survival time, dose: 200.0 mg/kg/injection, schedule: Q01DX009 (ip), vehicle: saline
  T/C: 96 % of control

## Cc1ccc(N)c(Br)c1
endpoint: mean survival time, dose: 25.0 mg/kg/injection, schedule: Q04DX003 (ip), vehicle: saline
  T/C: 111 % of control
endpoint: mean survival time, dose: 50.0 mg/kg/injection, schedule: Q04DX003 (ip), vehicle: saline
  T/C: 100 % of control
[10]
  T/C: 92 % of control
[13]
  T/C: 98 % of control and 100 % of control
[11]
  T/C: 98 % of control

## Cc1ccc(OCc2c(COc3ccc(Cl)cc3)sc3ccc(Cl)cc23)cc1
[10]
  T/C: 96 % of control
[12]
  T/C: 88 % of control
